From publication PMC5740381 (Antimicrobial Agents and Chemotherapy, 2017)
Where two headings read alike, the source gives them in different places.

Columns and labels:
GT1a H77 / 1a Wild type [1] = molecular target: T1, GT1a H77 / 1a Wild type (Hepatitis C virus (isolate H77), UniProt P27958); assay: cell-based; design: species or system Huh-7; conditions: SD, n = 3
T1 construct: in subgenomic replicon
Method: (§1) Mutagenesis was performed using a Change-IT multiple-mutation site-directed mutagenesis kit (USB, Cleveland, OH) or by cloning a synthesized DNA fragment encoding the amino acid substitution(s). The genotype 1a and 1b replicon shuttle vectors used for the introduction of the substitutions of interest in the NS3, NS5A, or NS5B gene for transient-transfection assays have been described previously ([28], [33]). The replicon shuttle vectors used for the introduction of substitutions in NS3 genes from other genotypes were similar to the stable replicon cell line constructs described above, except for the absence of the neo gene. After mutagenesis, the plasmids were linearized and RNA was transcribed and then used to transfect Huh-7 cells. Inhibition of HCV replication by the HCV inhibitors was measured by luciferase assay, as described above. Replication efficiency was calculated as a percentage of wild-type replication, as described previously ([28]).

GT1b Con1 / 1b Wild type [2] = molecular target: T2, GT1b Con1 / 1b Wild type (Hepatitis C virus (isolate Con1), UniProt Q9WMX2); assay: cell-based; design: species or system Huh-7; conditions: SD, n = 3
T2 construct: in subgenomic replicon
Method: as §1

GT1a H77 / 1a Wild type [3] = molecular target: T1, GT1a H77 / 1a Wild type; assay: cell-based; design: species or system Huh-7; conditions: SD, n = 3; read-out: HCV stable replicons in 0% human plasma, Mean EC50 ± SD
Source text: (§2) Five of these nine cell lines have been described previously, including those transfected with genotypes 1a H77, 1b Con1, 3a, 4a, and 6a ([28]). […] The genotype 2b and 6e NS3 sequences were each synthetically constructed based on a consensus sequence derived from the alignment of 15 genotype 2b and 4 genotype 6e sequences, respectively. All replicon constructs were bicistronic subgenomic replicons similar to those described by Bartenschlager and coworkers, and the replicon cell lines were generated by introducing these constructs into cells of an Huh-7 human hepatoma-derived cell line ([50]). The inhibitory effect of the PIs on HCV replication in replicon cells was determined in Dulbecco's modified Eagle medium containing 5% fetal bovine serum with or without 40% human plasma (Bioreclamation, Westbury, NY). The EC50s were determined using nonlinear regression curve fitting as described previously ([33]).

GT1b Con1 / 1b Wild type [4] = molecular target: T2, GT1b Con1 / 1b Wild type; assay: cell-based; design: species or system Huh-7; conditions: SD, n = 3; read-out: HCV stable replicons in 0% human plasma, Mean EC50 ± SD
Source text: as §2

1a R155K = molecular target: T3, 1a R155K (Hepatitis C virus (isolate H77), UniProt P27958, R1181K); assay: Luciferase assay of HCV replication in transient-transfection replicons with wild-type or substituted NS3 (at least 3 transfections).; assay type: cell-based, Huh-7; conditions: SD, n = 3
T3 construct: in transient replicon
Method: as §1

1a Q80K = molecular target: T4, 1a Q80K (Hepatitis C virus (isolate H77), UniProt P27958, Q1106K); assay: as above; assay type: cell-based, Huh-7; conditions: SD, n = 3
T4 construct: in transient replicon
Method: as §1

1b V55A = molecular target: T5, 1b V55A (Hepatitis C virus (isolate Con1), UniProt Q9WMX2, V1081A); assay: as above; assay type: cell-based, Huh-7; conditions: SD, n = 3
T5 construct: in transient replicon
Method: as §1

1b A156T = molecular target: T6, 1b A156T (Hepatitis C virus (isolate Con1), UniProt Q9WMX2, A1182T); assay: as above; assay type: cell-based, Huh-7; conditions: SD, n = 3
T6 construct: in transient replicon
Method: as §1

1b D168A = molecular target: T7, 1b D168A (Hepatitis C virus (isolate Con1), UniProt Q9WMX2, D1194A); assay: as above; assay type: cell-based, Huh-7; conditions: SD, n = 3
T7 construct: in transient replicon
Method: as §1

2a D168A = molecular target: T8, 2a D168A (Hepatitis C virus JFH-1, UniProt Q99IB8, D1198A); assay: as above; assay type: cell-based, Huh-7; conditions: SD, n = 3
T8 construct: in transient replicon
Method: as §1

1a D168A = molecular target: T9, 1a D168A (Hepatitis C virus (isolate H77), UniProt P27958, D1194A); assay: as above; assay type: cell-based, Huh-7; conditions: SD, n = 3
T9 construct: in transient replicon
Method: as §1

1b D168V = molecular target: T10, 1b D168V (Hepatitis C virus (isolate Con1), UniProt Q9WMX2, D1194V); assay: as above; assay type: cell-based, Huh-7; conditions: SD, n = 3
T10 construct: in transient replicon
Method: as §1

2a A156T = molecular target: T11, 2a A156T (Hepatitis C virus JFH-1, UniProt Q99IB8, A1186T); assay: as above; assay type: cell-based, Huh-7; conditions: SD, n = 3
T11 construct: in transient replicon
Method: as §1

1a Y56H = molecular target: T12, 1a Y56H (Hepatitis C virus (isolate H77), UniProt P27958, Y1082H); assay: as above; assay type: cell-based, Huh-7; conditions: SD, n = 3
T12 construct: in transient replicon
Method: as §1

1b A156V = molecular target: T13, 1b A156V (Hepatitis C virus (isolate Con1), UniProt Q9WMX2, A1182V); assay: as above; assay type: cell-based, Huh-7; conditions: SD, n = 3
T13 construct: in transient replicon
Method: as §1

1b T54A = molecular target: T14, 1b T54A (Hepatitis C virus (isolate Con1), UniProt Q9WMX2, T1080A); assay: as above; assay type: cell-based, Huh-7; conditions: SD, n = 3
T14 construct: in transient replicon
Method: as §1

1a D168V = molecular target: T15, 1a D168V (Hepatitis C virus (isolate H77), UniProt P27958, D1194V); assay: as above; assay type: cell-based, Huh-7; conditions: SD, n = 3
T15 construct: in transient replicon
Method: as §1

1a V55I = molecular target: T16, 1a V55I (Hepatitis C virus (isolate H77), UniProt P27958, V1081I); assay: as above; assay type: cell-based, Huh-7; conditions: SD, n = 3
T16 construct: in transient replicon
Method: as §1

1a A156T = molecular target: T17, 1a A156T (Hepatitis C virus (isolate H77), UniProt P27958, A1182T); assay: as above; assay type: cell-based, Huh-7; conditions: SD, n = 3
T17 construct: in transient replicon
Method: as §1

1b V170A = molecular target: T18, 1b V170A (Hepatitis C virus (isolate Con1), UniProt Q9WMX2, V1196A); assay: as above; assay type: cell-based, Huh-7; conditions: SD, n = 3
T18 construct: in transient replicon
Method: as §1

1b R155K = molecular target: T19, 1b R155K (Hepatitis C virus (isolate Con1), UniProt Q9WMX2, R1181K); assay: as above; assay type: cell-based, Huh-7; conditions: SD, n = 3
T19 construct: in transient replicon
Method: as §1

2a A156V = molecular target: T20, 2a A156V (Hepatitis C virus JFH-1, UniProt Q99IB8, A1186V); assay: as above; assay type: cell-based, Huh-7; conditions: SD, n = 3
T20 construct: in transient replicon
Method: as §1

1a V36M = molecular target: T21, 1a V36M (Hepatitis C virus (isolate H77), UniProt P27958, V1062M); assay: as above; assay type: cell-based, Huh-7; conditions: SD, n = 3
T21 construct: in transient replicon
Method: as §1

5a D168E = molecular target: T22, 5a D168E (Hepatitis C virus SA13, UniProt O91936, D1195E); assay: as above; assay type: cell-based, Huh-7; conditions: SD, n = 3
T22 construct: in genotype 2a JFH-1 chimeric transient replicon
Method: as §1

1a F43L = molecular target: T23, 1a F43L (Hepatitis C virus (isolate H77), UniProt P27958, F1069L); assay: as above; assay type: cell-based, Huh-7; conditions: SD, n = 3
T23 construct: in transient replicon
Method: as §1

1b D168E = molecular target: T24, 1b D168E (Hepatitis C virus (isolate Con1), UniProt Q9WMX2, D1194E); assay: as above; assay type: cell-based, Huh-7; conditions: SD, n = 3
T24 construct: in transient replicon
Method: as §1

1a D168E = molecular target: T25, 1a D168E (Hepatitis C virus (isolate H77), UniProt P27958, D1194E); assay: as above; assay type: cell-based, Huh-7; conditions: SD, n = 3
T25 construct: in transient replicon
Method: as §1

2a D168E = molecular target: T26, 2a D168E (Hepatitis C virus JFH-1, UniProt Q99IB8, D1198E); assay: as above; assay type: cell-based, Huh-7; conditions: SD, n = 3
T26 construct: in transient replicon
Method: as §1

1a T54S = molecular target: T27, 1a T54S (Hepatitis C virus (isolate H77), UniProt P27958, T1080S); assay: as above; assay type: cell-based, Huh-7; conditions: SD, n = 3
T27 construct: in transient replicon
Method: as §1

2a D168V = molecular target: T28, 2a D168V (Hepatitis C virus JFH-1, UniProt Q99IB8, D1198V); assay: as above; assay type: cell-based, Huh-7; conditions: SD, n = 3
T28 construct: in transient replicon
Method: as §1

5a D168H = molecular target: T29, 5a D168H (Hepatitis C virus SA13, UniProt O91936, D1195H); assay: as above; assay type: cell-based, Huh-7; conditions: SD, n = 3
T29 construct: in genotype 2a JFH-1 chimeric transient replicon
Method: as §1

[5] = tested on: genotype 1b Con1 replicon cells; conditions: genotype 1b replicon cells; cited from earlier work
[6] = tested on: HCV genotype 1a replicon cells; assay: Drug-resistant colony selection in replicon cells; assay type: cell-based, Hepatitis C virus; conditions: 10× EC50, about 3 weeks
Source text: (§3) . After approximately 3 weeks of treatment, the surviving replicon colonies in one plate for each selection condition were stained with crystal violet and counted, whereas approximately 20 to 30 colonies in a replicate plate or most of the colonies, if less than 20 colonies survived the selection, were picked and further expanded for genotyping. The expanded colonies were lysed in CellsDirect lysis buffer (Invitrogen, MA), and the NS3-coding region from each colony was amplified by reverse transcription-PCR and sequenced. For genotype 1a, 1b, 2a, and 5a colonies, the full-length NS3 sequence was determined, whereas for colonies of the chimeric replicon containing the N-terminal region of NS3 from genotype 2b, 3a, 4a, or 6a, the sequence encoding the NS3 N-terminal region was determined. We defined a substitution in a replicon to be an amino acid difference in a sequence from a posttreatment sample relative to the sequence of the corresponding untreated sample. For resistance selection studies, NS3 substitutions detected at the following amino acid positions associated with resistance to the HCV PI class in >2 colonies in each replicon selection are reported: 36, 43, 54, 55, 56, 80, 122, 155, 156, and 168. In addition, substitutions detected at other amino acid positions in the NS3 protease domain in >2 colonies in each replicon selection are also reported.
(§4) […]. The drug-resistant colonies were fixed and stained with crystal violet, and the number of colonies was determined.

[7] = tested on: HCV genotype 1b replicon cells; assay: Drug-resistant colony selection in replicon cells; assay type: cell-based, Hepatitis C virus; conditions: 10× EC50, about 3 weeks
Source text: as §3, §4

Structure (SMILES): Cc1cnc(C(=O)N[C@H]2CCCCC/C=C\[C@@H]3C[C@@]3(C(=O)NS(=O)(=O)C3CC3)NC(=O)[C@@H]3C[C@@H](Oc4nc5ccccc5c5ccccc45)CN3C2=O)cn1 [Paritaprevir, paritaprevir (ABT-450)]
- EC50 (GT1a H77 / 1a Wild type [1]): 1.4 ± 0.4 nM
- EC50 (GT1b Con1 / 1b Wild type [2]): 0.11 ± 0.05 nM
- EC50 (GT1a H77 / 1a Wild type [3]): 1 ± 0.33 nM
- EC50 (GT1b Con1 / 1b Wild type [4]): 0.21 ± 0.07 nM
- EC50 (1a R155K): 51 ± 8 nM
- EC50 (1a Q80K): 3.9 ± 0.3 nM
- EC50 (1b V55A): 0.07 ± 0.001 nM
- EC50 (1b A156T): 0.81 ± 0.13 nM
- EC50 (1b D168A): 3 ± 0.2 nM
- EC50 (2a D168A): 306 ± 34 nM
- EC50 (1a D168A): 70 ± 9 nM
- EC50 (1b D168V): 17 ± 2 nM
- EC50 (2a A156T): 29 ± 2.8 nM
- EC50 (1a Y56H): 4.1 ± 1.1 nM
- EC50 (1b A156V): 2.3 ± 0.53 nM
- EC50 (1b T54A): 0.09 ± 0.01 nM
- EC50 (1a D168V): 135 ± 21 nM
- EC50 (1a V55I): 1.4 ± 0.14 nM
- EC50 (1a A156T): 24 ± 3 nM
- EC50 (1b V170A): 0.09 ± 0.03 nM
- EC50 (1b R155K): 4.4 ± 0.1 nM
- EC50 (2a A156V): 37 ± 1.2 nM
- EC50 (1a V36M): 3 ± 0.3 nM
- EC50 (5a D168E): 7.7 ± 1.7 nM
- EC50 (1a F43L): 27 ± 12 nM
- EC50 (1b D168E): 0.48 ± 0.05 nM
- EC50 (1a D168E): 20 ± 0.7 nM
- EC50 (2a D168E): 89 ± 15 nM
- EC50 (1a T54S): 0.54 ± 0.01 nM
- EC50 (2a D168V): 228 ± 32 nM
- EC50 (5a D168H): 184 ± 65 nM

Structure (SMILES): COC(=O)N[C@H](C(=O)N1CCC[C@H]1c1nc2cc([C@H]3CC[C@H](c4cc5nc([C@@H]6CCCN6C(=O)[C@@H](NC(=O)OC)[C@@H](C)OC)[nH]c5cc4F)N3c3cc(F)c(N4CCC(c5ccc(F)cc5)CC4)c(F)c3)c(F)cc2[nH]1)[C@@H](C)OC [Pibrentasvir, reference compound]
- EC50 [5]: 0.0043 nM
- Colony survival [6]: 0.0065%
- Colony survival [7]: 0%
- Colony survival ([7]; listed as pibrentasvir): no genotype 1b replicon cells survived
